Assay results from patent US20250221981A1, “MAT2A INHIBITOR AND/OR TSG101 INHIBITOR FOR USE IN ANTIVIRAL THERAPY” (CAMBRIDGE ENTERPRISE LIMITED, priority 2022, published 2025).

Assays:
[1] = tested on: BKPyV; assay: Fluorescence focus unit (FFU) assay of infectious BKPyV from treated RPTE/TERT1 cells; type: cell-based, BK polyomavirus; settings: for reduction in infectious virus production: BKPyV MOI 1
Method: (B) Effect of PF-9366 on viral replication: Cells were infected with BKPyV (MOI 1) in media containing appropriate drug concentrations. At 1 hpi infectious media was removed, cells were washed and fresh media with appropriate drug concentrations was added. At 48 hpi cells were harvested and infectious BKPyV was measured by FFU assay. n=3.
(§1) Cells were treated with MAT2A inhibitors at 1 hr post infection and were harvested at 48 hr post infection at MOI 1. (A) Total infectious BKPyV synthesis expressed as fold change to DMSO control (FFU titre assay). (B) Total viral protein expression (LTAg and VP1) was analysed by western blot. Tubulin was used as loading control. All error bars represent SEM. Two sample paired T-test was used to determine significance (*p<0.05; **p<0.01; ***p<0.001, ****p<0.0001), all numerical data shown were obtained over 2 independent experiments.
(§2) RPTE/hTERT cells were treated with inhibitors at 1 hr post infection (PI), infected at MOI 1. (A) Viral growth curves using FFU titre assay in drug treated and untreated cells infected with BKPyV at MOI 1 for 48 hr PI, 72 hr PI and 96 hr PI. (B) Total viral protein expression (LTAg and VP1) from drug treatments and untreated control was analysed by western blot with samples harvested at 48 hr PI and 96 hr PI. Tubulin was used as loading control. All error bars represent SEM. All numerical data shown were obtained over 2 independent experiments.
The ability for PF-9366 to inhibit the production of infectious virus was then investigated. RPTE/TERT1 cells were once again treated with a concentration range of PF-9366 or DMSO as a control prior to infection, and as before, infected with BKPyV (MOI 1) then washed and media replaced at 1 hpi. At 48 hpi total virus was harvested from each condition and an FFU assay was conducted to determine BKPyV virus titre (FIG. 3B).
For BKPyV infections, RPTE/TERT1, RPTE/TERT1-Cas9 or RPTE/TERT1 MAT2A KO cells were infected with BKPyV at either a multiplicity of infection (MOI) of 5 for growth curves or an MOI of 3 or 1 for all other experiments, diluted in appropriate medium. At 1 hour post infection (hpi) medium was removed, cells were washed twice with phosphate-buffered saline (PBS), and fresh medium was added with or without inhibitors. At 24, 48, 72 or 96 hpi cells were either harvested for western blot, RT qPCR or virus titre by FFU assay, or fixed for immunofluorescence analysis.
FFU assays were used to determine the concentration of infectious BKPyV in experimental samples. RPTE/TERT1 cells were infected with sample dilutions, fixed at 48 hpi in 3% formaldehyde, and immunostained for VP1 expression as described in Evans et al. (Open Biol. 2015 August; 5 (8): 150041).
Example 1: PF-9366 (Sigma-Aldrich) and AG-270 (kindly supplied by Astra Zeneca) were diluted in 100% DMSO. Cells were drug treated at a range of concentrations in REBM supplemented with BulletKit (Lonza) for 3 hours prior to infection. Cells were infected with BK-Dunlop in media and appropriate drug dilution. At 1 hpi infectious media was removed, cells gently washed with PBS and media containing appropriate drug dilutions was added. At 48 hpi cells were either fixed in 3% formaldehyde for microscopy, or harvested by scraping up into fresh drug-free media.
TSG101 inhibitor Ilaprazole (Sigma-Aldrich) was diluted in 100% DMSO. Cells were treated at a range of inhibitor concentrations and combinations, in appropriate media for the cell type used, for either 3 hours prior to infection (HSV-1, Alphavirus and Flavivirus infections) or 1 hour post infection (BKPyV infection).

[2] = tested on: BKPyV; assay: Western blot of BKPyV viral protein expression (LTAg, VP1) in RPTE/TERT1 cells; type: cell-based, BK polyomavirus
Method: (C)(i) Effect of PF-9366 on viral early and late gene and cellular MAT2A expression: Cells were infected with BKPyV (MOI 3) in media containing appropriate drug concentrations. At 1 hpi infectious media was removed, cells were washed and fresh media with appropriate drug concentrations was added. Cells were harvested at 48 hpi and a western blot performed. Membranes were blotted for viral late gene VP1, LTAg, cellular MAT2A/MAT1A, and tubulin as a loading control.
(iii) Viral gene expression is modulated in response to PF-9366: The density of BKPyV VP1 and LTAg expression were measured, normalized to tubulin loading control (LiCor Image Studio Software), n=3.
as §1, §2
It has previously been noted by Quinlan et al. (Nat Chem Biol. 2017 13 (7): 785-792) that treatment with PF-9366 can increase MAT2A expression as a compensatory mechanism within cells. To investigate this, cells were once again treated with a range of PF-9366 for 3 hours prior to infection (or DMSO treated). Cells were infected with BKPyV (MOI 3), washed at 1 hpi, and fresh drug treated media was added. At 48 hpi cells were harvested and protein expression was analysed by western blotting (FIG. 3C(i)). MAT2A expression was quantified from band intensities, normalised to the tubulin loading control and plotted (FIG. 3C(ii), n=3). A clear increase in the cellular expression of MAT2A was observed, up to an 8-fold increase at 10 μM PF-9366. Western blot analysis was also conducted on early viral gene (LTAg) and late viral gene (VP1) expression (FIG. 3C(iii), n=3).
Cell lysate preparation and western blots were performed as described in Ren et al. (J Gen Virol. 2012 February; 93 (Pt 2): 319-329). Primary antibodies used were ab53977 (VP1), PAb416 (LTAg), sc-166452 (MAT2A/1A), ab110226 (VP16), sc-53070 (ICP0), anti-Zika E Protein, and either anti-GAPDH or anti-tubulin as a loading control, followed by IRDye 680LT-, or IRDye 800CW-conjugated secondary antibodies. Imaging was performed using the LI-COR Odyssey Infrared Imaging system. Quantification was performed using LI-COR Image Studio Software.

[3] = 125 nM to 1 μM, dose dependent, MOI 1, 48 hr post infection

COc1ccc(-c2c(Nc3ccccn3)[nH]c3c(C4=CCCCC4)c(-c4ccccc4)nn3c2=O)cc1 [AG-270]
inhibition of BKPyV replication (total infectious BKPyV, FFU titre) ([1]; 125 nM, 250 nM, 500 nM and 1 μM, added 1 hr post infection, MOI 1, 48 hr post infection): significant dose dependent inhibition
potency against BKPyV replication ([1]; AG270 1 μM or AZ33 125 nM in conjunction with Ilaprazole (5 μM), compared with MAT2A inhibitor alone): increased potency
early viral protein (LTAg) levels (western blot) [2, 3]: reduced
late viral protein (VP1) levels (western blot) [2, 3]: reduced

CN(C)CCc1nnc2cc(-c3ccccc3)c3cc(Cl)ccc3n12 [PF-9366]
reduction in infectious virus production ([1]; 2.5 μM (lowest concentration), 48 hpi): 60%
reduction in viral titre for BKPyV ([1]; 2.5 μM, MOI 1, 48 hpi): 2-3 fold
reduction in infectious virus production ([1]; 40 μM (maximum), 48 hpi): ~95%
VP1 expression (western blot) ([2]; across the concentration range of PF-9366, BKPyV MOI 3, 48 hpi): dose-dependent reduction
expression of LTAg (western blot) ([2]; two highest concentrations of PF-9366, BKPyV MOI 3, 48 hpi): Reduced expression
